In ChEMBL document CHEMBL2029239, “Identification, design and biological evaluation of bisaryl quinolones targeting Plasmodium falciparum type II NADH:quinone oxidoreductase (PfNDH2)” (J Med Chem, 2012) one finds IC50 data, which are given here for 66 compounds.

Assay [1] concerns Plasmodium falciparum. Nature of the assay: Antimalarial activity against blood stage forms of Plasmodium falciparum 3D7. It counts as functional, organism-based.
A short description of assay [2]: Inhibition of Plasmodium falciparum recombinant NDH2 expressed in Escherichia coli F571 using decyclubiquinone as substrate at 1 min by spectrophotometry.
The subject of assay [3] is Plasmodium falciparum. Nature of the assay: Antimalarial activity against atoquinone-resistant Plasmodium falciparum TM90C2B. It counts as functional, organism-based.
Assay [4] can be described thus: Inhibition of Plasmodium falciparum cytochrome b-c1 complex using decylubiquinol as substrate by spectrophotometry.
Assay [5] concerns Plasmodium falciparum. Nature of the assay: Antimalarial activity against chloroquine-resistant Plasmodium falciparum W2. The assay is classed as functional, organism-based.

pIC50: −log10 of the molar value. Where only a bound is given, the exact number is not on record here.

Broadly, the pIC50 is −log10 of the IC50, conventionally taken in molar units. In turn, `COc1ccc(-c2cc(=O)c3ccccc3[nH]2)cc1` showed a pIC50 with Plasmodium falciparum [1] of under 6.00. `O=c1c(-c2ccc(Oc3ccc(OC(F)(F)F)cc3)cc2)c(CO)[nH]c2ccccc12`: the pIC50 in assay [2] is under 4.25; in the assay with Plasmodium falciparum [1], 7.04. `Cc1c(-c2ccc(C(F)(F)F)cc2)[nH]c2ccccc2c1=O`: the pIC50 in assay [2] is 7.05; with Plasmodium falciparum [1], 6.12.

`Cc1c(-c2ccc(OC(F)(F)F)cc2)[nH]c2ccccc2c1=O` gave a pIC50 with Plasmodium falciparum [1] of under 6.00.

Consider `Cc1c(-c2ccc(C(F)(F)F)cc2)[nH]c2ncccc2c1=O`, for which the pIC50 in the assay on Plasmodium falciparum [1] is under 6.00. As for `Cc1c(-c2ccc(OC(F)(F)F)cc2)[nH]c2ncccc2c1=O`, the pIC50 with Plasmodium falciparum [1] was under 6.00.

`COc1ccc(-c2[nH]c3ncccc3c(=O)c2C)cc1` showed a pIC50 in the assay with Plasmodium falciparum [1] of under 6.00. Consider `Cc1c(-c2ccc(Br)cc2)[nH]c2ncccc2c1=O`, for which the pIC50 in the assay on Plasmodium falciparum [1] is under 6.00.

As to `O=c1cc(-c2ccc(C(F)(F)F)cc2)[nH]c2ccccc12`, the pIC50 in assay [2] is 7.28; in the assay with Plasmodium falciparum [1], 6.24.

Turning to `O=c1cc(-c2ccc(OC(F)(F)F)cc2)[nH]c2ccccc12`, the pIC50 is 7.32 in assay [2] and 6.17 in the assay with Plasmodium falciparum [1]. In the case of `O=c1cc(-c2ccc(O)cc2)[nH]c2ccccc12`, the pIC50 in the assay on Plasmodium falciparum [1] was under 6.00. For `O=c1c(Cl)c(-c2ccc(OC(F)(F)F)cc2)[nH]c2ccccc12`, the results for the pIC50 (in assay [2]; in the assay on Plasmodium falciparum [1]) were 6.60 and 6.29, respectively.

For the compound `COc1ccc(-c2[nH]c3ccccc3c(=O)c2Cl)cc1`, the pIC50 in assay [2] was 5.78; with Plasmodium falciparum [1], 6.25. On to `Cc1c(-c2ccc(Cc3ccccc3)cc2)[nH]c2ccccc2c1=O`, for which the figures for the pIC50 (in the assay on Plasmodium falciparum [3]; in assay [2]; in the assay with Plasmodium falciparum [1]) were 6.38, 7.56 and 6.97, respectively. Turning to `Cc1c(-c2cccc(Cc3ccc(OC(F)(F)F)cc3)c2)[nH]c2ccccc2c1=O`, the pIC50 in assay [4] was 6.66; in the assay with Plasmodium falciparum [3] it was 7.19; in assay [2], 7.30; with Plasmodium falciparum [1], 7.59. In the case of `Cc1c(-c2ccc(Cc3ccc(F)cc3)cc2)[nH]c2ccccc2c1=O`, the pIC50 in assay [4] is 7.59; with Plasmodium falciparum [3] it was 6.56; in assay [2], over 9.00; with Plasmodium falciparum [1], 7.08. Regarding `COc1ccc(Cc2ccc(-c3[nH]c4ccccc4c(=O)c3C)cc2)cc1`, the pIC50 with Plasmodium falciparum [3] was 6.24; in assay [2], 6.95; in the assay with Plasmodium falciparum [1], 7.43. In turn, `Cc1c(-c2ccc(Cc3ccc(OC(F)(F)F)cc3)cc2)[nH]c2ccc(C(F)(F)F)cc2c1=O` had a pIC50 with Plasmodium falciparum [1] of 6.18. The compound `Cc1c(-c2ccc(Cc3ccc(OC(F)(F)F)cc3)cc2)[nH]c2cc(C(F)(F)F)ccc2c1=O` had a pIC50 in the assay on Plasmodium falciparum [1] of 6.67. For the compound `Cc1c(-c2ccc(Cc3ccc(OC(F)(F)F)cc3)cc2)[nH]c2cc(F)c(Cl)cc2c1=O`, the pIC50 in the assay with Plasmodium falciparum [1] was 7.15. As to `Cc1c(-c2ccc(Cc3ccc(OC(F)(F)F)cc3)cc2)[nH]c2cc(Cl)c(F)cc2c1=O`, the pIC50 in the assay on Plasmodium falciparum [1] is 7.42. `COc1cccc2[nH]c(-c3ccc(Cc4ccc(OC(F)(F)F)cc4)cc3)c(C)c(=O)c12`: the pIC50 in the assay on Plasmodium falciparum [1] was 6.18. `COc1ccc2[nH]c(-c3ccc(Cc4ccc(OC(F)(F)F)cc4)cc3)c(C)c(=O)c2c1` showed a pIC50 with Plasmodium falciparum [1] of 6.33. As to `COc1ccc2c(=O)c(C)c(-c3ccc(Cc4ccc(OC(F)(F)F)cc4)cc3)[nH]c2c1`, the pIC50 in the assay on Plasmodium falciparum [5] was 7.89; with Plasmodium falciparum [1], 8.10. For the compound `COc1cccc2c(=O)c(C)c(-c3ccc(Cc4ccc(OC(F)(F)F)cc4)cc3)[nH]c12`, in the assay with Plasmodium falciparum [1], the pIC50 is 6.42. As to `Cc1c(-c2cccc(Cc3ccc(OC(F)(F)F)cc3)c2)[nH]c2ccc(Cl)cc2c1=O`, the values for the pIC50 in the assay with Plasmodium falciparum [3] and in the assay with Plasmodium falciparum [1] were 7.51 and 8.08, respectively. As for `Cc1c(-c2cccc(Cc3ccc(OC(F)(F)F)cc3)c2)[nH]c2cc(Cl)ccc2c1=O`, the results for the pIC50 in the assay with Plasmodium falciparum [3] and in the assay on Plasmodium falciparum [1] were 7.03 and 7.47, respectively. For the compound `Cc1c(-c2ccc(Cc3ccc(F)cc3)cc2)[nH]c2cc(Cl)ccc2c1=O`, in assay [2], the pIC50 is 6.71. In turn, `Cc1c(-c2ccc(Cc3ccc(OC(F)(F)F)cc3)cc2F)[nH]c2cc(Cl)ccc2c1=O` had a pIC50 with Plasmodium falciparum [1] of 7.52. Take `Cc1c(-c2ccc(Oc3ccc(Cl)cc3)cc2)[nH]c2ccccc2c1=O`: the negative logarithm of the IC50 (pIC50) in the assay on Plasmodium falciparum [3] was 6.10; in assay [2] it was 7.44; with Plasmodium falciparum [1], 6.64.

In the assay on Plasmodium falciparum [1], `Cc1c(-c2ccc(Cc3ccc(OC(F)(F)F)cc3)cc2)[nH]c2ccc(O)cc2c1=O` showed a pIC50 of 6.33. The compound `Cc1c(-c2ccc(Cc3ccc(OC(F)(F)F)cc3)cc2)[nH]c2cc(O)ccc2c1=O` had a pIC50 with Plasmodium falciparum [1] of 6.86. For the compound `Cc1c(-c2ccc(Cc3ccc(OC(F)(F)F)cc3)cc2)[nH]c2c(O)cccc2c1=O`, in the assay with Plasmodium falciparum [1], the pIC50 is 6.09. The compound `CC(=O)Oc1cccc2c(=O)c(C)c(-c3ccc(Cc4ccc(OC(F)(F)F)cc4)cc3)[nH]c12` showed a pIC50 with Plasmodium falciparum [1] of 6.39.

Regarding `Cc1c(-c2ccc(Cc3ccc(OC(F)(F)F)cc3)cc2)[nH]c2ncccc2c1=O`, the pIC50 in the assay with Plasmodium falciparum [3] is 5.73; in assay [2] it was 7.01; in the assay with Plasmodium falciparum [1] it was 6.39. On the same counts, the results for `Cc1c(-c2ccc(Cc3ccc(OC(F)(F)F)cc3)cc2)[nH]c2cc(F)ccc2c1=O` are 6.72, 7.92 and 7.16.

Turning to `Cc1c(-c2ccc(Cc3ccc(OC(F)(F)F)cc3)cc2)[nH]c2cc(F)c(F)cc2c1=O`, the pIC50 in the assay on Plasmodium falciparum [3] is 6.68; in assay [2], 7.51; with Plasmodium falciparum [1] it was 7.62. The compound `Cc1c(-c2ccc(Cc3ccc(F)cc3)cc2)[nH]c2ncccc2c1=O` gave a pIC50 in the assay with Plasmodium falciparum [1] of 6.30.

`O=c1cc(-c2ccc(Cc3ccc(OC(F)(F)F)cc3)cc2)[nH]c2ccccc12`: the pIC50 in the assay on Plasmodium falciparum [5] is 7.44; in assay [4], 7.86; in the assay with Plasmodium falciparum [3], 6.60; in assay [2], 8.21; with Plasmodium falciparum [1], 7.32. Turning to `O=c1cc(-c2ccc(Cc3ccc(OC(F)(F)F)cc3)cc2)[nH]c2cc(F)c(F)cc12`, the pIC50 in the assay on Plasmodium falciparum [3] was 6.20; with Plasmodium falciparum [1] it was 7.80. Turning to `O=c1cc(-c2ccc(Cc3ccc(OC(F)(F)F)cc3)cc2)[nH]c2cc(Cl)c(Cl)cc12`, the pIC50 in assay [2] is 6.76; in the assay with Plasmodium falciparum [1], 7.55. `COc1cc2[nH]c(-c3ccc(Cc4ccc(OC(F)(F)F)cc4)cc3)cc(=O)c2cc1F` gave a pIC50 in the assay on Plasmodium falciparum [1] of 7.41.

The compound `O=c1cc(-c2ccc(Cc3ccc(OC(F)(F)F)cc3)cc2)[nH]c2ccc(N3CCNCC3)cc12` showed a pIC50 with Plasmodium falciparum [1] of 6.37. The compound `O=c1cc(-c2ccc(Cc3ccc(OC(F)(F)F)cc3)cc2)[nH]c2cc(N3CCNCC3)ccc12` gave a pIC50 in the assay with Plasmodium falciparum [1] of 6.35. Turning to `COC(=O)c1ccc(Cc2ccc(-c3cc(=O)c4ccccc4[nH]3)cc2)cc1`, the pIC50 in assay [2] is 7.72; in the assay on Plasmodium falciparum [1] it was 6.57. In turn, `O=c1cc(-c2ccc(Cc3ccc(OC(F)(F)F)cc3)cc2)[nH]c2cc(O)c(F)cc12` had a pIC50 in the assay on Plasmodium falciparum [1] of under 6.00. As for `O=c1cc(-c2ccc(Cc3ccc(CO)cc3)cc2)[nH]c2ccccc12`, the pIC50 in the assay on Plasmodium falciparum [1] was under 6.00. On to `O=c1c(Cl)c(-c2ccc(Cc3ccc(OC(F)(F)F)cc3)cc2)[nH]c2ccccc12`, for which the pIC50 was 7.66 with Plasmodium falciparum [5], 6.48 in the assay with Plasmodium falciparum [3], 6.86 in assay [2] and 7.72 with Plasmodium falciparum [1]. Turning to `Cc1[nH]c2ccccc2c(=O)c1-c1ccc(Cc2ccc(OC(F)(F)F)cc2)cc1`, the figures for the pIC50 (in the assay with Plasmodium falciparum [5]; in assay [2]; in the assay on Plasmodium falciparum [1]) were 7.38, 6.31 and 7.44, respectively.

Turning to `Cc1[nH]c2ccccc2c(=O)c1-c1ccc(Oc2ccc(OC(F)(F)F)cc2)cc1`, the pIC50 in the assay with Plasmodium falciparum [5] was 7.47; in assay [2], 6.72; in the assay with Plasmodium falciparum [1] it was 8.00.

As to `O=c1c(-c2ccc(Oc3ccc(OC(F)(F)F)cc3)cc2)c[nH]c2ccccc12`, the pIC50 with Plasmodium falciparum [1] was 6.10. Consider `CCOC(=O)c1c(-c2ccc(Cc3ccc(OC(F)(F)F)cc3)cc2)[nH]c2ccccc2c1=O`, for which the pIC50 in the assay with Plasmodium falciparum [3] was 5.85; in assay [2], 6.57; in the assay with Plasmodium falciparum [1] it was 7.40. On to `CCOC(=O)c1c(-c2ccc(Cc3ccc(OC(F)(F)F)cc3)cc2)[nH]c2cc(Cl)ccc2c1=O`, for which the pIC50 in the assay on Plasmodium falciparum [3] is 7.04; with Plasmodium falciparum [1] it was 7.59. For `O=c1c(CO)c(-c2ccc(Cc3ccc(OC(F)(F)F)cc3)cc2)[nH]c2cc(Cl)ccc12` the same measures were 6.48 and 7.20. For `O=c1c(CO)c(-c2ccc(Oc3ccc(OC(F)(F)F)cc3)cc2)[nH]c2cc(Cl)ccc12`, the pIC50 in the assay on Plasmodium falciparum [1] is 6.70. With `CCOC(=O)Oc1c(C)c(-c2ccc(Cc3ccc(OC(F)(F)F)cc3)cc2)nc2ccccc12`, the pIC50 is 8.17 in the assay on Plasmodium falciparum [3] and 7.57 in the assay on Plasmodium falciparum [1]. For `CCOC(=O)Oc1c(-c2ccc(Cc3ccc(OC(F)(F)F)cc3)cc2)c(C)nc2ccccc12` the same measures were 6.65 and 7.57.

As for `CCOC(=O)Oc1c(C)c(-c2ccc(Oc3ccc(OC(F)(F)F)cc3)cc2)nc2ccccc12`, the pIC50 with Plasmodium falciparum [3] is 6.39; in the assay with Plasmodium falciparum [1] it was 7.22.

Turning to `Cc1c(-c2ccc(Cc3ccc(OC(F)(F)F)cc3)cc2)n(O)c2ccccc2c1=O`, the pIC50 was 8.10 in the assay with Plasmodium falciparum [5], 6.66 with Plasmodium falciparum [3], 7.26 in assay [2] and 7.66 in the assay on Plasmodium falciparum [1]. In the case of `Cc1c(-c2ccc(Cc3ccc(OC(F)(F)F)cc3)cc2)n(O)c2cc(Cl)ccc2c1=O`, the pIC50 in the assay on Plasmodium falciparum [3] was under 6.00; with Plasmodium falciparum [1], 6.83.

With `Cc1c(-c2ccc(Cc3ccc(OC(F)(F)F)cc3)cc2)c(=O)c2ccccc2n1O`, the figures for the pIC50 (in the assay on Plasmodium falciparum [3]; in assay [2]; with Plasmodium falciparum [1]) were 6.17, 7.87 and 6.76, respectively.

With `O=c1cc(-c2ccc(Cc3ccc(OC(F)(F)F)cc3)cc2)n(O)c2ccccc12`, the results for the pIC50 (in the assay with Plasmodium falciparum [3]; in assay [2]; in the assay with Plasmodium falciparum [1]) were 6.39, 7.15 and 6.58, respectively. For `Cc1c(-c2ccc(Oc3ccc(OC(F)(F)F)cc3)cc2)n(O)c2ccccc2c1=O` the same measures were 6.25, 6.97 and 7.46.

On to `Cc1c(-c2ccc(Oc3ccc(OCCN4CCOCC4)cc3)cc2)[nH]c2ccccc2c1=O`, for which the pIC50 with Plasmodium falciparum [1] is under 6.00. `Cc1c(-c2ccc(Oc3cccc(OCCN4CCOCC4)c3)cc2)[nH]c2ccccc2c1=O`: the pIC50 with Plasmodium falciparum [1] was 6.14. Regarding `Cc1c(-c2ccc(Cc3cccc(OCCN4CCOCC4)c3)cc2)[nH]c2ccccc2c1=O`, the pIC50 in assay [2] is 6.55; with Plasmodium falciparum [1], 6.45.
